The numbers were not newly measured in patent US6555519B2, “O-glucosylated benzamide SGLT2 inhibitors and method” (Bristol-Myers Squibb Company, priority 2000, dated 2003), which cites them from elsewhere.

For orientation: Km means the substrate concentration at which the rate is half of its maximum.

The target of one data set is T1, human SGLT1 (Homo sapiens, UniProt P13866).
T1 sequence (P13866 1-664): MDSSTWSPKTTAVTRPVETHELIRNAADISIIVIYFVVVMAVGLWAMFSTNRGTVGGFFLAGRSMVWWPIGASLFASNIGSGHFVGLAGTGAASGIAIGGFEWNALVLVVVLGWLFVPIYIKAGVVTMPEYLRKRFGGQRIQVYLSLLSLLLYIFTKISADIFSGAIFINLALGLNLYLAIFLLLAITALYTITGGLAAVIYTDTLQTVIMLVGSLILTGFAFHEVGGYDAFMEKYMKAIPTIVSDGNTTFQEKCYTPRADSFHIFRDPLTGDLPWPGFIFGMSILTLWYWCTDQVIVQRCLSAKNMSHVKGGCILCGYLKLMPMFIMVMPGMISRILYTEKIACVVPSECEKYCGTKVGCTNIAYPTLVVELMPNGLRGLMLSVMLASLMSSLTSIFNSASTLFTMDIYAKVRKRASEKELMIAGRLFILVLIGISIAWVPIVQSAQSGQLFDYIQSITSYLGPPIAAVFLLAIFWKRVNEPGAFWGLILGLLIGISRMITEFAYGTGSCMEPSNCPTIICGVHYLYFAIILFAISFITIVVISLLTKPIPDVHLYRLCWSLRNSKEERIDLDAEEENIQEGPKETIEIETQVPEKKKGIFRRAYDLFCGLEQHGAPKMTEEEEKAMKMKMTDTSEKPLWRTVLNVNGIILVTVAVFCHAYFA
As to conditions: SGLT1 transporter; read-out: Km values for uptake.

The next data set has as its target T2, human SGLT2 (Homo sapiens, UniProt P31639).
T2 sequence (P31639 1-672): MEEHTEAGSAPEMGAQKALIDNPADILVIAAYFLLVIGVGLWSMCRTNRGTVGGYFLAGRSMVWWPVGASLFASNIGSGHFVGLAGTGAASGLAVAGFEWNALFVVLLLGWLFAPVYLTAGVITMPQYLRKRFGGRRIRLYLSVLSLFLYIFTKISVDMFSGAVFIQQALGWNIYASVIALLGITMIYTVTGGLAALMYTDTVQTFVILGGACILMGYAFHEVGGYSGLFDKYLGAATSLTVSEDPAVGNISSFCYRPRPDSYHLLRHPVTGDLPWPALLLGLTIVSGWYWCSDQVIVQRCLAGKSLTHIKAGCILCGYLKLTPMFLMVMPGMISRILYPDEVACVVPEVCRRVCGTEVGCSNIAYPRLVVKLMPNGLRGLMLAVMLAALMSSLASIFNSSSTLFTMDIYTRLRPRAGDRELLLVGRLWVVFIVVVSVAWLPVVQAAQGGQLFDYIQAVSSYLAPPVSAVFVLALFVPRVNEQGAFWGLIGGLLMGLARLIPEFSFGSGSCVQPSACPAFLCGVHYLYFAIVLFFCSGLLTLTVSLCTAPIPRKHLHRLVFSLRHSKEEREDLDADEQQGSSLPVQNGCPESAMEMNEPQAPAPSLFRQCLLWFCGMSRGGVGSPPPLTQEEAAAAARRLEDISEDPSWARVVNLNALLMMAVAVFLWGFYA
As to conditions: SGLT2 transporter; read-out: Km values for uptake.

As to `CO[C@H]1O[C@H](CO)[C@@H](O)[C@H](O)[C@H]1O` [AMG, α-methyl-D-glucopyranoside], the Km on human SGLT1 was 400 µM; on human SGLT2, 1600 µM.
